This note sets out measurements from patent US20230136562A1, “SPIROUREA DERIVATIVES” (Idorsia Pharmaceuticals Ltd, priority 2020, published 2023).

The target in test [1] is T1, Kv7.2/7.3 (Homo sapiens, UniProt O43525+O43526).
T1 construct: expressed in transfected cells; host or cells: HEK293
As to the kind of experiment: Kv7.2/3 assay (FLIPR potassium assay, agonist mode). The test is classed as cell-based. The settings on record: Kv7.2/7.3 activation; HEK293 cells, human KCNQ2 and KCNQ3. The procedure:
HEK293 cells were stably transfected with the appropriate ion channel cDNA(s) (human KCNQ2 and KCNQ3 genes). Cells were cultured in Dulbecco's Modified Eagle Medium/Nutrient mixture F-12 (D-MEM/F-12) supplemented with 10% fetal bovine serum, 100 U/mL penicillin G sodium, 100 µg/mL streptomycin sulfate and selection antibiotics. FLIPR Test Procedure: For FLIPR assay, cells were plated in 384-well black clear-bottomed microtiter plates (BD Biocoat Poly-D-Lysine Multiwell Cell Culture Plate) at 15'000 to 30'000 cells per well. Cells were incubated at 37° C. overnight or until cells reached sufficient density in the wells (near confluent monolayer) to use in fluorescence assays. […] Assays were performed with the FLIPR potassium assay kit (Molecular Devices) according to the manufacturer's instructions. Dye-loading: Growth media was removed and replaced with 20 μL of dye loading buffer for 60 min at room temperature. FLIPR Recording (agonist mode): Stock solutions of test compounds were prepared at a concentration of 33.3 mM in DMSO. 5 μL of 5× concentrated test, vehicle, or control compounds solutions prepared in the stimulation buffer (K^+-free buffer with 5 mM TI^+) were added to each well and fluorescence recording was continued for 5 min. The agonist effect (EC50 and % effect) of test or control compounds on Kv7 channels was determined as follows: Raw data was exported using Screenworks® 4.2 software and the fluorescence traces were analysed using Microsoft Excel (Microsoft Corp., Redmond, Wash.). The test compounds responses were expressed as % of maximum response of the control compound Flupirtine (Sigma-Aldrich), which was tested at concentrations ranging from 0.03 to 100 μM. Concentration-response data were fitted to a Hill equation. Non-linear least squares fits were made assuming a simple binding model. If appropriate, fits were weighted by the standard deviation. No assumptions about the fit parameters were made; the fit parameters were determined by the algorithm.

The test system of test [2] is DBA/2J mice. Put plainly: Audiogenic seizure-sensitive mouse model of generalized convulsive seizures (AGS). Format: in vivo. The settings on record: challenge 1 h, 90% MC 0.5% + 10% PEG400, read-out: Seizure stage [% vs. vehicle]. The procedure:
(§1) Formulation and Administration.
(§2) Compounds were formulated in a 10% polyethylene glycol 400 (PEG 400)/90% aqueous solution of 0.5% methylcellulose (MC 0.5%). Firstly drugs are dissolved in PEG 400 and then suspended in MC 0.5% for oral gavage at X mg/5 mL/kg (X see table).
Audiogenic Seizure-Sensitive Mouse Model of Generalized Convulsive Seizures
1. Procedure: Following two days of acclimatisation, auditory seizures are induced in male juvenile DBA/2J mice (22-24 days old). Each mouse is placed individually in the exposure chamber, an hemispheric acrylic glass dome (diameter: 50 cm) within a sound-attenuated box. The sound-attenuated box is equipped with two house lights and a camera system (Fire-I from Unibrain) in order to observe and record the behavioral seizure response. After 60 seconds of habituation, the stimulus, a mixed frequency tone of 15-20 kHz at 110 dB (SASLab Lite, Avisoft Bioacoustics), is played from a speaker that is placed on the top center of the dome. […] Seizures are classified as following: stage 0, normal behavior; stage 1, wild running; stage 2, generalized clonus; stage 3, tonic extension of the hind limbs.
2. Compounds testing: Acute compound effects on audiogenic generalized convulsive seizures are evaluated in independent groups of 8-10 mice randomly assigned. Following oral administration of compound or vehicle, the maximum seizure stage during sound exposure is assessed. Compounds are given 1 hour before exposure to the stimulus. Each mouse is exposed to the auditory stimulus only once and euthanized afterwards by CO2 inhalation.

For test [3], the system named is Wistar rats. As to the kind of experiment: Amygdala-kindling rat model. Format: in vivo. The settings on record: formulation 90% MC 0.5% + 10% PEG400. On the procedure: as §1, §2
Amygdala-Kindling Rat Model:
1. Procedure: Adult male Wistar rats (Harlan Laboratories, Netherlands, or Charles Rivers, Germany; body weight 300-350 g) were stereotaxically implanted with twisted bipolar plastic-coated stainless steel electrode (MS333-2-BIU 10 mm, Plastics One) into the right basolateral amygdala under isoflurane anesthesia. To place the electrode, trepanations were made in the skull and the electrode was lowered into the right basolateral amygdala (from bregma: anteriorposterior (AP): −2.5 mm, medio-lateral (ML): −3.5 mm, dorso-ventral (DV): −8.6 mm; α=10°) and secured to the skull with screws and dental acrylate. After one week of recovery, they were handled daily and habituated over one week to the kindling set-up. Kindling procedure: For a kindling session each rat was placed individually into a smooth acrylic plastic, round-bottomed bowl (Ø 36 cm, height 36 cm, BASi movement-responsive caging system) and its intracranial implanted electrode was connected to the stimulator (STG4008, Multichannel Systems GmbH) and the recording devices (PowerLab 8/35, ADInstruments Ltd) via a cable (335-340/3 (C), Plastics One). For the kindling procedure, each rat was exposed once daily to an electrical stimulation and the behavioral symptoms of the evoked seizure were observed and classified according to the modified Racine scale (stage 0, arrest, wet dog shakes, normal behaviour; stage 1, facial twitches: nose, lips, eyes; stage 2, chewing, head nodding; stage 3, forelimb clonus; stage 4, rearing, falling on forelimbs; stage 5, rearing, falling on side or back, rolling). The electrical stimulus consists of a 1s-train of 50 Hz square-wave biphasic pulses of 1-ms duration at an intensity of 400 μA (suprathreshold intensity). […] Data Scoring and analysis. The duration of electroencephalographic seizures (afterdischarge, AD) was recorded using LabChart7 Pro software (ADlnstruments Ltd). Simultaneously, videos were recorded to evaluate seizure stage (SS).
2. Compound testing: Acute drug effects were evaluated in groups of 6-8 fully kindled rats in a randomized cross-over design with 48 h between drug and vehicle applications. Following oral administration of drug or vehicle, drug testing included determination of the afterdischarge threshold (the minimal stimulation intensity necessary to evoke an afterdischarge (electroencephalographically measured neuronal hyper-synchronous activity with an amplitude 2-times higher than baseline amplitude and a frequency of ≥1 Hz) of at least 3 sec duration) and monitoring electroencephalographic and behavioral correlates of the evoked seizure at ADT (afterdischarge threshold), including AD duration and SS, by a experimenter blind to treatment assignment.

[4] abbreviates: 10 mg/kg po, time of challenge 15 min.
[5] abbreviates: 30 mg/kg po, time of challenge 1 h.
Setting [6] is: 100 mg/kg po, time of challenge 1 h.

What is called EC50 is the concentration needed to bring the measured effect to its halfway point. Low values mean a more potent agent, high ones a less potent agent. `O=C(NC1CC2(CC2)C1)N[C@@H](CO)c1cccc(C(F)(F)F)c1` (single isomer, unassigned) [Example 186]: the 50% effective concentration (EC50) in test [1] amounted to 0.023 µM. The change in vivo at 5 mg/kg in test [2] (5 mg/kg po) is -67%. For the same compound, in test [3] (setting [4]), the “AD duration [% vs veh]” value is recorded as −87 % vs veh and the “Seizure stage [% vs veh]” value was −50 % vs veh.

Consider `O=C(NCc1cc(OCC(F)(F)F)ncn1)NC1CC2(CCC2)C1` [Example 59, 1-Spiro[3.3]hept-2-yl-3-[6-(2,2,2-trifluoro-ethoxy)-pyrimidin-4-ylmethyl]-urea], for which, in test [1], a half-maximal effect (EC50) was put at 0.0124 µM. The change in vivo at 10 mg/kg in test [2] (10 mg/kg po) was -70%. Besides, in test [3] (setting [5]), the “AD duration [% vs veh]” value is −96 % vs veh and the “Seizure stage [% vs veh]” value is listed as −83 % vs veh.

`O=C(NCc1cccc(C(F)(F)F)c1)NC1CC2(CC2)C1` [Example 2, 1-Spiro[2.3]hex-5-yl-3-(3-trifluoromethyl-benzyl)-urea]: in test [1], it took 0.07 µM to reach a half-maximal effect (EC50). In test [2] (30 mg/kg po), the change in vivo at 30 mg/kg was -95%. Moreover, in test [3] (setting [6]), the “AD duration [% vs veh]” value is reported as −93 % vs veh and the “Seizure stage [% vs veh]” value is given as −88 % vs veh.
